# From US12304881B2, “Trientine tetrahydrochloride and a method of preparation and a pharmaceutical composition thereof” (Yu-Jet Co., Ltd., priority 2022, dated 2025)
# Structures can show the parent of a compound that is named as a salt.
# Assays:
# [1] = as disclosed in CN102924289B; cited from earlier work
stability (impurity by TLC) in words,Structure (SMILES),"stability, compared between hydrochloride salts [1]"
–,"NCCNCCNCCN [TETA·2HCl, trientine dihydrochloride]",worse than that of TETA·4HCl
good enough,"NCCNCCNCCN [TETA·4HCl Form N, trientine tetrahydrochloride]",–
